Source: ChEMBL document CHEMBL3734717, “New INH-pyrazole analogs: Design, synthesis and evaluation of antitubercular and antibacterial activity” (Bioorg Med Chem Lett, 2015)
≈ marks a conversion by molar mass, not a printed value. Calls of active or inactive are those of the source. No cut-off for these calls is given here.

Columns and labels:
[1] = test system: Staphylococcus aureus; experiment: Antibacterial activity against Staphylococcus aureus assessed as zone of inhibition at 75 ug/ml incubated for 18-24 hrs at 37 degC by disc diffusion method; assay type: functional; conditions: read-out: IZ
[2] = test system: Pseudomonas aeruginosa; experiment: Antibacterial activity against Pseudomonas aeruginosa assessed as zone of inhibition at 50 ug/ml incubated for 18-24 hrs at 37 degC by disc diffusion method; assay type: functional; conditions: for zone of inhibition at 50 µg/mL: read-out: IZ
[3] = test system: Escherichia coli; experiment: Antibacterial activity against Escherichia coli assessed as zone of inhibition at 75 ug/ml incubated for 18-24 hrs at 37 degC by disc diffusion method; assay type: functional; conditions: for zone of inhibition at 75 µg/mL: read-out: IZ
[4] = test system: Pseudomonas aeruginosa; experiment: Antibacterial activity against Pseudomonas aeruginosa assessed as zone of inhibition at 75 ug/ml incubated for 18-24 hrs at 37 degC by disc diffusion method; assay type: functional; conditions: for zone of inhibition at 75 µg/mL: read-out: IZ
[5] = test system: Mycobacterium tuberculosis; experiment: Antitubercular activity against Mycobacterium tuberculosis H37Rv assessed as inhibition of cell growth after 5 days by microplate alamar blue assay; assay type: functional; conditions: 120 h
[6] = test system: Staphylococcus aureus; experiment: Antibacterial activity against Staphylococcus aureus assessed as zone of inhibition at 50 ug/ml incubated for 18-24 hrs at 37 degC by disc diffusion method; assay type: functional; conditions: read-out: IZ
[7] = test system: Escherichia coli; experiment: Antibacterial activity against Escherichia coli assessed as zone of inhibition at 50 ug/ml incubated for 18-24 hrs at 37 degC by disc diffusion method; assay type: functional; conditions: for zone of inhibition at 50 µg/mL: read-out: IZ
[8] = Selectivity index, ratio of IC50 for African green monkey Vero cells to MIC for Mycobacterium tuberculosis H37Rv; assay type: toxicity, cell-based; conditions: read-out: Selectivity Index
[9] = Cytotoxicity against African green monkey Vero cells assessed as growth inhibition at 62.5 ug/ml after 3 days by MTT assay; assay type: cell-based; conditions: chlorocebus sabaeus, read-out: GI
[10] = test system: Vero; experiment: Cytotoxicity against African green monkey Vero cells assessed as growth inhibition after 3 days by MTT assay; assay type: cell-based; conditions: Chlorocebus sabaeus, 72 h

SMILES	zone of inhibition at 75 µg/mL [1] [mm]	zone of inhibition at 50 µg/mL [2] [mm]	zone of inhibition at 75 µg/mL [3] [mm]	zone of inhibition at 75 µg/mL [4] [mm]	MIC [5] [µM]	zone of inhibition at 50 µg/mL [6] [mm]	zone of inhibition at 50 µg/mL [7] [mm]	selectivity ratio [8]	inhibition at 72 h, 62.5 ug/ml [9] [%]	IC50 [10] [µg/mL]	inhibition zone (IZ) [2]	inhibition zone (IZ) [3]	inhibition zone (IZ) [4]	inhibition zone (IZ) [7]
O=C(c1ccncc1)N(/N=C/c1c[nH]nc1-c1cccc(Cl)c1)C(=O)c1ccc([N+](=O)[O-])cc1	17	11	15	14	26.3 (≈ 12.5 µg/mL)	14	13	–	–	–	–	–	–	–
COc1ccc(C(=O)N(/N=C/c2c[nH]nc2-c2ccc(Cl)cc2)C(=O)c2ccncc2)cc1OC	10	9	9	11	102 (≈ 50 µg/mL)	8	6	–	–	–	–	–	–	–
O=C(c1ccncc1)N(/N=C/c1c[nH]nc1-c1cccc(Cl)c1)C(=O)c1ccccc1Cl	15	12	18	16	1.7 (≈ 0.789 µg/mL)	13	14	642	14.9	513 (≈ 1110 µM)	–	–	–	–
O=C(O)c1cn(C2CC2)c2cc(N3CCNCC3)c(F)cc2c1=O [CIPROFLOXACIN]	26	18	32	21	–	21	27	–	–	–	–	–	–	–
O=C(c1ccncc1)N(/N=C/c1c[nH]nc1-c1ccc(Cl)cc1)C(=O)c1ccc([N+](=O)[O-])cc1	19	15	20	17	26.3 (≈ 12.5 µg/mL)	17	18	–	–	–	–	–	–	–
O=C(c1ccncc1)N(/N=C/c1c[nH]nc1-c1ccc(Cl)cc1)C(=O)c1ccc(Cl)cc1	24	18	24	21	53.8 (≈ 25 µg/mL)	21	19	–	–	–	–	–	–	–
NC(=O)c1cnccn1 [PYRAZINAMIDE]	–	–	–	–	406 (≈ 50 µg/mL)	–	–	–	–	–	–	–	–	–
O=C(c1ccncc1)N(/N=C/c1c[nH]nc1-c1cccc(Cl)c1)C(=O)c1ccc(CCl)cc1	17	18	16	20	52.3 (≈ 25 µg/mL)	14	14	–	–	–	–	–	–	–
O=C(c1ccncc1)N(/N=C/c1c[nH]nc1-c1cccc(Cl)c1)C(=O)c1ccc(Cl)cc1	23	19	25	21	3.4 (≈ 1.58 µg/mL)	18	21	> 625	10.5	> 1000	–	–	–	–
O=C(c1ccncc1)N(/N=C/c1c[nH]nc1-c1ccc(Cl)cc1)C(=O)c1ccccc1Cl	18	15	19	19	53.8 (≈ 25 µg/mL)	14	16	–	–	–	–	–	–	–
O=C(c1ccncc1)N(/N=C/c1c[nH]nc1-c1ccc(Cl)cc1)C(=O)c1ccc(CCl)cc1	16	18	19	20	13.1 (≈ 6.27 µg/mL)	13	15	> 160	12	> 1000	–	–	–	–
Cc1ccc(C(=O)N(/N=C/c2c[nH]nc2-c2cccc(Cl)c2)C(=O)c2ccncc2)cc1	12	8	11	10	113 (≈ 50 µg/mL)	10	8	–	–	–	–	–	–	–
O=C(c1ccccc1)N(/N=C/c1c[nH]nc1-c1cccc(Cl)c1)C(=O)c1ccncc1	13	–	–	–	116 (≈ 50 µg/mL)	11	–	–	–	–	inactive	inactive	inactive	inactive
O=C(c1ccccc1)N(/N=C/c1c[nH]nc1-c1ccc(Cl)cc1)C(=O)c1ccncc1	11	10	–	12	116 (≈ 50 µg/mL)	9	–	–	–	–	–	inactive	–	inactive
O=C(N/N=C/c1c[nH]nc1-c1cccc(Cl)c1)c1ccncc1	23	15	24	19	4.9 (≈ 1.6 µg/mL)	18	20	> 625	26.3	> 1000	–	–	–	–
O=C(c1ccncc1)N(/N=C/c1c[nH]nc1-c1cccc(Cl)c1)C(=O)c1ccc(F)cc1	16	13	14	17	3.6 (≈ 1.61 µg/mL)	13	12	> 625	17.8	> 1000	–	–	–	–
NNC(=O)c1ccncc1 [ISONIAZID]	–	–	–	–	0.7 (≈ 0.096 µg/mL)	–	–	–	–	–	–	–	–	–
COc1ccc(C(=O)N(/N=C/c2c[nH]nc2-c2cccc(Cl)c2)C(=O)c2ccncc2)cc1OC	10	–	–	–	102 (≈ 50 µg/mL)	8	–	–	–	–	inactive	inactive	inactive	inactive
COc1ccc(C(=O)N(/N=C/c2c[nH]nc2-c2ccc(Cl)cc2)C(=O)c2ccncc2)cc1	12	10	9	13	109 (≈ 50 µg/mL)	10	7	–	–	–	–	–	–	–
CC[C@@H](CO)NCCN[C@@H](CC)CO [ETHAMBUTOL]	–	–	–	–	15.3 (≈ 3.13 µg/mL)	–	–	–	–	–	–	–	–	–
Cc1ccc(C(=O)N(/N=C/c2c[nH]nc2-c2ccc(Cl)cc2)C(=O)c2ccncc2)cc1	20	11	14	15	113 (≈ 50 µg/mL)	17	12	–	–	–	–	–	–	–
COc1ccc(C(=O)N(/N=C/c2c[nH]nc2-c2cccc(Cl)c2)C(=O)c2ccncc2)cc1	10	11	11	14	109 (≈ 50 µg/mL)	7	9	–	–	–	–	–	–	–
O=C(c1ccncc1)N(/N=C/c1c[nH]nc1-c1ccc(Cl)cc1)C(=O)c1ccc(F)cc1	17	14	19	17	112 (≈ 50 µg/mL)	14	17	–	–	–	–	–	–	–
O=C(N/N=C/c1c[nH]nc1-c1ccc(Cl)cc1)c1ccncc1	19	14	16	18	38.4 (≈ 12.5 µg/mL)	16	14	–	–	–	–	–	–	–
